Test results taken from US11339130B1 (Blade Therapeutics, Inc., priority 2016, dated 2022).
pIC50: −log10 of the molar value. Like-named read-outs stand apart in the source and are kept apart here.

Columns and labels:
Human Calpain 1/NS1 = molecular target: T1, Human Calpain 1/NS1 (Homo sapiens, UniProt P07384); test: Calpain inhibition continuous fluorescence (FRET) assay, Human Calpain 1/NS1; format: biochemical; details: read-out: Human Calpain 1/NS1 IC50
T1 sequence (P07384 1-714): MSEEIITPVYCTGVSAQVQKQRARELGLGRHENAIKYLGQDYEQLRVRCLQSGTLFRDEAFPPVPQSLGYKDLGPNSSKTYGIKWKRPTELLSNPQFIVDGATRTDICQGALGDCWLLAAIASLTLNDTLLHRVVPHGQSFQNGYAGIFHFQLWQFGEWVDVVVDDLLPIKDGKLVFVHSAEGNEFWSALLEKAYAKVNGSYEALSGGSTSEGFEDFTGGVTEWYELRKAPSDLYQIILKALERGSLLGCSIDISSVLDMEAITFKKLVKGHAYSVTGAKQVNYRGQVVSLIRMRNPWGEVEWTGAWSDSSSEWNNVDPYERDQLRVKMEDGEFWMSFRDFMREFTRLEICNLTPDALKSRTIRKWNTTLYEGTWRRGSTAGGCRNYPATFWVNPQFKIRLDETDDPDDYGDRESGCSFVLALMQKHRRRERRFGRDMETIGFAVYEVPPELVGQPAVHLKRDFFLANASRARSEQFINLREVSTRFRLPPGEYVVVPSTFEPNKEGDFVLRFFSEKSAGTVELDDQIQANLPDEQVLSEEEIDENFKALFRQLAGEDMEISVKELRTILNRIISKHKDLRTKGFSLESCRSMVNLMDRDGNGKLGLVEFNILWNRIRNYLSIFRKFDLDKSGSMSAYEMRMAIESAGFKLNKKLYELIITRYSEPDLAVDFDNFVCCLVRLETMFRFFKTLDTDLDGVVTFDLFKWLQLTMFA
T1 sequence (P04632 1-268 partner): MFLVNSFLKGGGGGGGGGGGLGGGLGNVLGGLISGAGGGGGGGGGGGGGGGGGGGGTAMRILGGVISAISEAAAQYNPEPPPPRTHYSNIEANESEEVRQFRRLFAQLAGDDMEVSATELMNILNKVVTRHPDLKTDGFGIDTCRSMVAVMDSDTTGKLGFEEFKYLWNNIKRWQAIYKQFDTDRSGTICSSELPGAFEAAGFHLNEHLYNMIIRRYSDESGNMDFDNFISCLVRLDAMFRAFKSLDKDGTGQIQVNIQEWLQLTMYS
In short: (§1)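 Inhibitors were preincubated with calpain in 50 mM Tris pH 7.5, 100 mM NaCl, 1 mM DTT at 25C. Reactions were started with 5-FAM/QXL 520 FRET peptide substrate plus CaCl2 and read at 490/520 nm for 10 min. IC50s came from 4-parameter fits of slope rates (1-5 min).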

Human Calpain 2/NS1 = molecular target: T2, Human Calpain 2/NS1 (Homo sapiens, UniProt P17655); test: Calpain inhibition continuous fluorescence (FRET) assay, Human Calpain 2/NS1; format: biochemical; details: read-out: Human Calpain 2/NS1 IC50
T2 sequence (P17655 1-700): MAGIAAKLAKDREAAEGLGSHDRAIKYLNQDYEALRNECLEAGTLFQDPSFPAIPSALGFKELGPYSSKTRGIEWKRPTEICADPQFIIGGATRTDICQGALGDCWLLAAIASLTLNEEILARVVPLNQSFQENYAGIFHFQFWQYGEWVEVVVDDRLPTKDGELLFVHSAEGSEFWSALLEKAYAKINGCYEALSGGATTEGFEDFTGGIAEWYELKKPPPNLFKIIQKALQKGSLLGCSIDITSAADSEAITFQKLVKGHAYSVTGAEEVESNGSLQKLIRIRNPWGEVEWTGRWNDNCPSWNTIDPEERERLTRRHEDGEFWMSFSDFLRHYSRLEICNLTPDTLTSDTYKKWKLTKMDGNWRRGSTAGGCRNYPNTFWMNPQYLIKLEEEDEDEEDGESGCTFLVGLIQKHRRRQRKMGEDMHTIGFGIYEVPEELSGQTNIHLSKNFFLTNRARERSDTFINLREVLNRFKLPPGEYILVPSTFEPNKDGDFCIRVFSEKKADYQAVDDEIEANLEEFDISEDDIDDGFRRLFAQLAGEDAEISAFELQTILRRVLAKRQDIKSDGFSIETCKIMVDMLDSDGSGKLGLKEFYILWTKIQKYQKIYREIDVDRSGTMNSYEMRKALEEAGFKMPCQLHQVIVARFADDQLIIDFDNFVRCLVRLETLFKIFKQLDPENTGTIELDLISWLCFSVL
T2 sequence (P04632 1-268 partner): T1 sequence (P04632 1-268 partner)
In short: as §1

Human Calpain 9/NS1 = molecular target: T3, Human Calpain 9/NS1 (Homo sapiens, UniProt O14815); test: Calpain inhibition continuous fluorescence (FRET) assay, Human Calpain 9/NS1; format: biochemical; details: read-out: Human Calpain 9/NS1 IC50
T3 sequence (O14815 1-690): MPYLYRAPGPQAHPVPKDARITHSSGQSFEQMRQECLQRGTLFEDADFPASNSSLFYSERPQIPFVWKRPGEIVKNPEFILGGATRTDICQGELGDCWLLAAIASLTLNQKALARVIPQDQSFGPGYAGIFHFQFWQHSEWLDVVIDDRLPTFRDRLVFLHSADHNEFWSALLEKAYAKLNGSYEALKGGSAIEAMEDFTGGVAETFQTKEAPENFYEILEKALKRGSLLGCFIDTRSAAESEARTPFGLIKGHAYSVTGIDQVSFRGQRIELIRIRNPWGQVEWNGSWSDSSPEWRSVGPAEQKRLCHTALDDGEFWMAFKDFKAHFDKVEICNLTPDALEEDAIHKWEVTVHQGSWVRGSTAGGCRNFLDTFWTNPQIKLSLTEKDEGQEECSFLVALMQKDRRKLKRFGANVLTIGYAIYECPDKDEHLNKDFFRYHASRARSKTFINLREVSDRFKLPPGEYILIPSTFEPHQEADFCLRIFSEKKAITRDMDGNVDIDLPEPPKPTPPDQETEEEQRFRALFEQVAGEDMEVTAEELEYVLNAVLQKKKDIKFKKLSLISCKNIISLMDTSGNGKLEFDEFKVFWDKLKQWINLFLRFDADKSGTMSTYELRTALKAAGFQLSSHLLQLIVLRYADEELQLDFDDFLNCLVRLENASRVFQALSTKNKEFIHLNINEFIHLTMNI
T3 sequence (P04632 1-268 partner): T1 sequence (P04632 1-268 partner)
In short: as §1

[1] = tested on: Calpain activity in SH-SY5Y cells (SBDP-150); test: SH-SY5Y Spectrin western blot assay (SBDP-150 breakdown product, A23187-induced); format: cell-based; details: read-out: SH-SY5Y Spectrin IC50
[2] = tested on: Calpain activity in SH-SY5Y cells; test: SH-SY5Y + AMC fluorescence assay (Suc-LLVY-AMC substrate); format: cell-based
[3] = Homo sapiens, SH-SY5Y cells, A23187-induced SBDP-150, western blot
[4] = read-out: SH-SY5Y + AMC IC50, Column E

Row | Compound | pIC50 (Human Calpain 1/NS1) | pIC50 (Human Calpain 2/NS1) | pIC50 (Human Calpain 9/NS1) | pIC50 ([1]; SH-SY5Y cells, A23187-induced SBDP-150, western blot) | pIC50 ([2]; read-out: SH-SY5Y + AMC IC50) | pIC50 [1, 3] | pIC50 (Human Calpain 1/NS1; Column A) | pIC50 (Human Calpain 2/NS1; Column B) | pIC50 (Human Calpain 9/NS1; Column C) | pIC50 ([1]; Homo sapiens, SH-SY5Y) | pIC50 [2, 4] | pIC50 ([1]; Homo sapiens, Column D, SH-SY5Y cells, A23187-induced SBDP-150) | pIC50 ([2]; Column E, read-out: SH-SY5Y + AMC IC50)
1 | N-(4-amino-3,4-dioxo-1-phenylbutan-2-yl)-1-methyl-3-(5-methylthiophen-2-yl)-1H-pyrazole-4-carboxamide [Compound 505] | > 5.52 | > 5.52 | > 5.52 | > 5.00 | < 4.60 | – | – | – | – | – | – | – | –
2 | Cn1cc(C(=O)NC(Cc2cc(Cl)cc(Cl)c2)C(=O)C(N)=O)c(-c2ccccc2)n1 (stereo not shown) [Compound 418, N-(4-amino-1-(3,5-dichlorophenyl)-3,4-dioxobutan-2-yl)-1-methyl-3-phenyl-1H-pyrazole-4-carboxamide] | > 5.52 | > 5.52 | > 5.52 | – | 4.60 to 5.00 | 4.60 to 5.00 | – | – | – | – | – | – | –
3 | Cc1cncc(-c2oncc2C(=O)NC(Cc2ccccc2)C(=O)C(N)=O)c1 (stereo not shown) [Compound 600, N-(4-amino-3,4-dioxo-1-phenylbutan-2-yl)-5-(5-methylpyridin-3-yl)isoxazole-4-carboxamide] | > 5.52 | > 5.52 | > 5.52 | – | < 4.60 | 4.60 to 5.00 | – | – | – | – | – | – | –
4 | C#CCOCc1ccc(-c2nsnc2C(=O)N[C@@H](Cc2ccccc2)C(=O)CF)cc1 [Compound 362, (S)—N-(4-fluoro-3-oxo-1-phenylbutan-2-yl)-4-(4-((prop-2-yn-1-yloxy)methyl)phenyl)-1,2,5-thiadiazole-3-carboxamide] | > 5.52 | > 5.52 | > 5.52 | – | < 4.60 | > 5.00 | – | – | – | – | – | – | –
5 | Cc1cc(C(=O)N[C@@H](Cc2ccccc2)C(=O)CF)n(-c2cnccn2)n1 [Compound 477, (S)—N-(4-fluoro-3-oxo-1-phenylbutan-2-yl)-3-methyl-1-(pyrazin-2-yl)-1H-pyrazole-5-carboxamide] | 5.00 to 5.52 | > 5.52 | 5.00 to 5.52 | – | < 4.60 | 4.60 to 5.00 | – | – | – | – | – | – | –
6 | Cn1cc(C(=O)NC(Cc2ccccc2)C(=O)C(N)=O)c(-c2cccc(C(F)(F)F)n2)n1 (stereo not shown) [Compound 198, N-(4-amino-3,4-dioxo-1-phenylbutan-2-yl)-1-methyl-3-(6-(trifluoromethyl)pyridin-2-yl)-1H-pyrazole-4-carboxamide] | – | – | – | – | – | – | > 5.52 | > 5.52 | > 5.52 | < 4.60 | < 4.60 | – | –
7 | Cc1cc(-c2nn(C)cc2C(=O)NC(Cc2ccccc2)C(=O)C(N)=O)c(C)s1 (stereo not shown) [Compound 499, N-(4-amino-3,4-dioxo-1-phenylbutan-2-yl)-3-(2,5-dimethylthiophen-3-yl)-1-methyl-1H-pyrazole-4-carboxamide] | > 5.52 | > 5.52 | > 5.52 | – | > 5.00 | 4.60 to 5.00 | – | – | – | – | – | – | –
8 | Cc1cc(C(=O)N[C@@H](Cc2ccccc2)C(=O)C(N)=O)n(-c2ccc(CNC(=O)OCc3ccccc3)cc2)n1 [Compound 153, Benzyl (S)-(4-(5-((4-amino-3,4-dioxo-1-phenylbutan-2-yl)carbamoyl)-3-methyl-1H-pyrazol-1-yl)benzyl)carbamate] | – | – | – | – | – | – | > 5.52 | > 5.52 | > 5.52 | > 5.00 | < 4.60 | – | –
9 | COc1cccc(-c2oncc2C(=O)NC(Cc2ccccc2)C(=O)C(N)=O)c1F (stereo not shown) [Compound 595, N-(4-amino-3,4-dioxo-1-phenylbutan-2-yl)-5-(2-fluoro-3-methoxyphenyl)isoxazole-4-carboxamide] | > 5.52 | > 5.52 | > 5.52 | – | < 4.60 | 4.60 to 5.00 | – | – | – | – | – | – | –
10 | NC(=O)C(=O)C(Cc1ccccc1)NC(=O)c1cn(-c2ccc(F)cc2)nc1-c1ccccc1 (stereo not shown) [Compound 529, N-(4-amino-3,4-dioxo-1-phenylbutan-2-yl)-1-(4-fluorophenyl)-3-phenyl-1H-pyrazole-4-carb oxamide] | > 5.52 | > 5.52 | > 5.52 | – | > 5.00 | < 4.60 | – | – | – | – | – | – | –
11 | Cc1cc(C(=O)N[C@@H](Cc2ccccc2)C(=O)C(N)=O)n(-c2ccccn2)n1 [Compound 12, (S)—N-(4-amino-3,4-dioxo-1-phenylbutan-2-yl)-3-methyl-1-(pyridin-2-yl)-1H-pyrazole-5-carboxamide] | – | – | – | – | – | – | > 5.52 | > 5.52 | > 5.52 | – | – | 4.60 to 5.00 | > 5.00
12 | Cn1cc(C(=O)NC(Cc2ccccc2)C(=O)C(N)=O)c(-c2cccc3ncccc23)n1 (stereo not shown) [Compound 597, N-(4-amino-3,4-dioxo-1-phenylbutan-2-yl)-1-methyl-3-(quinolin-5-yl)-1H-pyrazole-4-carboxamide] | > 5.52 | > 5.52 | > 5.52 | – | 4.60 to 5.00 | 4.60 to 5.00 | – | – | – | – | – | – | –
13 | Cc1cccc(-c2oncc2C(=O)NC(Cc2ccccc2)C(=O)C(N)=O)c1F (stereo not shown) [Compound 584, N-(4-amino-3,4-dioxo-1-phenylbutan-2-yl)-5-(2-fluoro-3-methylphenyl)isoxazole-4-carboxamide] | > 5.52 | > 5.52 | > 5.52 | – | 4.60 to 5.00 | > 5.00 | – | – | – | – | – | – | –
14 | NC(=O)C(=O)C(Cc1ccccc1)NC(=O)c1cc(Br)nn1-c1ncccn1 (stereo not shown) [Compound 497, N-(4-amino-3,4-dioxo-1-phenylbutan-2-yl)-3-bromo-1-(pyrimidin-2-yl)-1H-pyrazole-5-carb oxamide] | > 5.52 | > 5.52 | > 5.52 | – | > 5.00 | 4.60 to 5.00 | – | – | – | – | – | – | –
